Reference: patent US5576335A, “Urea derivatives and their use as ACAT inhibitors” (Nisshin Flour Milling Co., Ltd., priority 1994, dated 1996)

Columns and labels:
Human LDL = assay: Antioxidative activity (inhibition of MDA formation in cupric sulfate-induced peroxidation of LDL); type: biochemical; details: compound 10^-5 M, cupric sulfate 5×10^-6 M, 5 hrs, percent inhibition of MDA formation vs control
Procedure: 2. Antioxidative activity
Human LDL was incubated in the presence of cupric sulfate (5×10^-6 M) and in the presence or absence of a compound (10^-5 M) for 5 hrs. After the incubation, the peroxidation of low-density lipoproteins (LDL) is evaluated by the formation of malondialdehyde (MDA), which is a sort of lipid peroxides according to the method of Simon J. T. Mao et al. (J. Med. Chem., Vol. 34, pages 298-302, 1991). Activity of the compound is shown by percent inhibition of the MDA formation as compared with control.

ACAT = ACAT inhibitory activity (labelled cholesteryl ester formation from [1-14C]oleoyl-CoA, liver microsome fractions); type: biochemical; details: compound at 10^-7 M; rabbit liver microsomes; percent inhibition of formation of labelled cholesteryl esters
Procedure: 1. ACAT inhibitory activity
The enzyme preparation, ACAT was prepared from liver microsome fractions of male rabbits according to the method of E. E. Largis et al. (Journal of Lipid Research, Vol. 30, pages 681-690, 1989). The activity was calculated by assaying the amount of the labelled cholesteryl esters formed from [1-^14 C]oleoyl-CoA and endogenous cholesterol according to the method of Kazuichi NATORI et al. (Japan J. Pharmacol., Vol. 42, pages 517-523, 1986).
The result is shown in Table 1, in which percent inhibition of the formation of the labelled cholesteryl esters with a compound added at 10^-7 M is indicated as index for the ACAT inhibitory activity.

`CCCCCCCNC(=O)Nc1ccccc1NC(=O)c1cc(C(C)(C)C)c(O)c(C(C)(C)C)c1` [Example 6, N-[2-(3-heptylureido)phenyl]-3,5-di-t-butyl-4-hydroxybenzamide] was tested, and the “Antioxidant Activity (%)” value (Human LDL) was 82% and the “ACAT Inhibition (%)” value (ACAT) was 79%.

`CC(C)(C)c1cc(C(=O)Nc2ccccc2NC(=O)NCC(c2ccccc2)c2ccccc2)cc(C(C)(C)C)c1O` [Example 7, N-[2-(3-(2,2-diphenylethyl)ureido]phenyl]-3,5-di-t-butyl-4-hydroxybenzamide] was tested, and the “Antioxidant Activity (%)” value (Human LDL) was 75% and the “ACAT Inhibition (%)” value (ACAT) was 86%.

In the case of `CC(C)(C)c1cc(C(=O)Nc2ccccc2NC(=O)N(Cc2ccccc2)Cc2ccccc2)cc(C(C)(C)C)c1O` [Example 8, N-[2-(3,3-dibenzylureido)phenyl]-3,5-di-t-butyl-4-hydroxybenzamide], the “Antioxidant Activity (%)” value (Human LDL) is reported as 83% and the “ACAT Inhibition (%)” value (ACAT) is reported as 85%.

`CC(C)(C)c1cc(C(=O)Nc2ccccc2NC(=O)NC23CC4CC(CC(C4)C2)C3)cc(C(C)(C)C)c1O` [Example 11, N-[2-(3-adamantyl)ureido]phenyl-3,5-di-t-butyl-4-hydroxybenzamide] was tested, and the “ACAT Inhibition (%)” value (ACAT) was 73%.

With `CC(C)(C)c1cc(C(=O)Nc2ccccc2NC(=O)N(Cc2ccccc2)Cc2ccccn2)cc(C(C)(C)C)c1O` [Example 12, N-[2-[3-benzyl-3-(2-pyridylmethyl)ureido]phenyl]-3,5-di-t-butyl-4-hydroxybenzamide] the “ACAT Inhibition (%)” value (ACAT) was 79%.

With `CCCCCCCN(C)C(=O)Nc1ccccc1NC(=O)c1cc(C(C)(C)C)c(O)c(C(C)(C)C)c1` [Example 13, N-[2-(3-heptyl-3-methyl)ureido]phenyl-3,5-di-t-butyl-4-hydroxybenzamide] the “ACAT Inhibition (%)” value (ACAT) was 88%.

For `CCCCCCCNC(=O)Nc1ccccc1NCc1cc(C(C)(C)C)c(O)c(C(C)(C)C)c1` [Example 14], the “Antioxidant Activity (%)” value (Human LDL) was 96% and the “ACAT Inhibition (%)” value (ACAT) was 81%.

In the case of `COc1ccc(NC(=O)N(Cc2ccccc2)Cc2ccccc2)c(NC(=O)c2cc(C(C)(C)C)c(O)c(C(C)(C)C)c2)c1` [Example 20, N-[2-(3,3-dibenzylureido)-5-methoxyphenyl]-3,5-di-t-butyl-4-hydroxybenzamide], the “ACAT Inhibition (%)” value (ACAT) is reported as 99%.

`CCCCCCCN(C)C(=O)Nc1ccc(OC)cc1NC(=O)c1cc(C(C)(C)C)c(O)c(C(C)(C)C)c1` [Example 21, N-[2-(3-heptyl-3-methylureido)-5-methoxyphenyl]-3,5-di-t-butyl-4-hydroxybenzamide] was tested, and the “ACAT Inhibition (%)” value (ACAT) was 93%.

For `CCCCCCCNC(=O)Nc1ccc(F)cc1NC(=O)c1cc(C(C)(C)C)c(O)c(C(C)(C)C)c1` [Example 30, N-[5-fluoro-2-(3-heptylureido)phenyl]-3,5-di-t-butyl-4-hydroxybenzamide], the “Antioxidant Activity (%)” value (Human LDL) was 79% and the “ACAT Inhibition (%)” value (ACAT) was 78%.

For `CCCCCCCN(C)C(=O)Nc1ccc(F)cc1NC(=O)c1cc(C(C)(C)C)c(O)c(C(C)(C)C)c1` [Example 32, N-[5-fluoro-2-(3-heptyl-3-methylureido)phenyl]-3,5-di-t-butyl-4-hydroxybenzamide], the “ACAT Inhibition (%)” value (ACAT) was 95%.

With `CCCCCCCN(C)C(=O)Nc1cc(Cl)c(Cl)cc1NC(=O)c1cc(C(C)(C)C)c(O)c(C(C)(C)C)c1` [Example 35, N-[4,5-dichloro-2-(3-heptyl-3-methylureido)phenyl]-3,5-di-t-butyl-4-hydroxybenzamide] the “ACAT Inhibition (%)” value (ACAT) was 71%.

In the case of `CCCCCCCNC(=O)Nc1cc(OC)ccc1NC(=O)c1cc(C(C)(C)C)c(O)c(C(C)(C)C)c1` [Example 36, N-[2-(3-heptylureido)-4-methoxyphenyl]-3,5-di-t-butyl-4-hydroxybenzamide], the “Antioxidant Activity (%)” value (Human LDL) is reported as 92% and the “ACAT Inhibition (%)” value (ACAT) is reported as 77%.
